Reference: paper PMC9295122, “Sialic Acid Derivatives Inhibit SiaT Transporters and Delay Bacterial Growth” (ACS Chemical Biology, 2022)

Assays:
[1] = biological target: T1, SiaT from P. mirabilis (Proteus mirabilis, UniProt B4EZY7); assay: biochemical; type: biochemical; details: for type of inhibition: PmSiaT, Lineweaver–Burk plot; for Ki: proteoliposome assay, Lineweaver–Burk, read-out: PmSiaT Ki
T1 construct: made in house
Description: To gain further insights into the molecular mechanisms, we investigated the direct effects of compounds 3e and 3f on the transport activity in proteoliposomes reconstituted with PmSiaT and SaSiaT. A kinetic analysis was performed by measuring the concentration-dependent uptake of [^3H]Neu5Ac in the presence of two different concentrations of the inhibitors 3f (Figure 5a,c) or 3e (Figure 5b,d).
Figure 5 Kinetic analysis of the inhibition of recombinant SiaT from P. mirabilis (A,B) and S. aureus (C,D) reconstituted in proteoliposomes and [^3H]Neu5Ac efflux in proteoliposomes (E,F). (a–d) Data were plotted according to Lineweaver–Burk as a reciprocal transport rate vs reciprocal Neu5Ac concentration. The transport rate was measured, in 5 min, by adding [^3H] Neu5Ac at the indicated concentrations to proteoliposomes containing 20 mM K^+-gluconate in the presence of valinomycin as described in the Supporting Information. [(A,B) P. mirabilis SiaT]; (A) compound 3f 0.25 μM (●) or 0.75 μM (□) was added in comparison to samples without inhibitor (○). (B) Compound 3e 12 μM (●) or 40 μM (□) was added in comparison to samples without an inhibitor (○). [(C,D) S. aureus SiaT]. (C) Compound 3f 80 μM (●) or 200 μM (□) was added in comparison to samples without an inhibitor (○). (D) Compound 3e 5 μM (●) or 12 μM (□) was added in comparison to samples without an inhibitor (○). Results are mean ± s.d. from four independent experiments (n = 4). […] Data are calculated as the percent of residual activity with respect to the control sample (efflux time zero). The results are the means ± s.d. of three independent experiments.
The purified SiaT from P. mirabilis and S. aureus was reconstituted by using the detergent removal procedure with the batchwise method previously pointed out.[16],[21] In brief, 2.5 μg or 5 μg of P. mirabilis and S. aureus SiaT, respectively, were mixed with 120 μL 10% C12E8, 100 μL of 10% egg yolk phospholipids (w/v, in the form of sonicated liposomes as previously described),[43] 20 mM of K^+-gluconate, and 20 mM Hepes Tris pH 7.0 in a final volume of 700 μL. The reconstitution mixture was incubated with 0.5 g Amberlite XAD-4 resin under rotatory stirring (1200 rpm) at 25 °C for 40 min.[44] The amount of reconstituted protein was estimated as previously described.[16]
For uptake experiments, 600 μL of proteoliposomes were loaded onto a Sephadex G-75 column (0.7 cm diameter × 15 cm height), pre-equilibrated with 20 mM Hepes Tris pH 7.0 with 40 mM sucrose to balance the internal osmolarity. Then, valinomycin (0.75 μg/mg phospholipid), prepared in ethanol, was added to the eluted proteoliposomes to generate a K^+ diffusion potential, as previously described. After 10 s of incubation with valinomycin, the transport was started by adding different concentrations of [^3H]-Neu5Ac (as indicated in the figures) to 100 μL proteoliposomes in the presence of 10 mM NaCl for P. mirabilis and 50 mM NaCl for S. aureus. For kinetic measurement, the initial transport rate was measured by stopping the reaction after 5 min, that is, within the initial linear range of [^3H]-Neu5Ac uptake into the proteoliposomes previously described. For efflux measurements, proteoliposomes were preloaded by incubation with [^3H]-Neu5Ac (as indicated in the figures) in the presence of 10 mM NaCl for P. mirabilis and 50 mM NaCl for S. aureus for 20 min. Efflux was started by adding 0.1 mM Neu5Ac or inhibitors to the preloaded proteoliposomes. In both uptake and efflux experiments, the transport assay was terminated by loading each proteoliposome sample (100 μL) on a Sephadex G-75 column (0.6 cm diameter × 8 cm height) to remove the external radioactivity. Proteoliposomes were eluted with 1 mL of 50 mM NaCl and collected in a 4 mL of scintillation mixture, vortexed and counted.

[2] = Plasma stability, human; type: in vitro ADME; details: 1 μM, 37 °C
Description: (§1) The reaction was started by the addition of the compound to blank plasma in LC vials after preincubation at 37 °C. The initial compound concentration was 1 μM. The reaction was stopped by the addition of ACN at seven time points (0, 0.5, 1, 2, 4, 6, and 23 h). Time point 0 h was about 15–20 s after spiking the plasma with the compound. The samples were centrifuged and the supernatant diluted and analyzed by LC–MS/MS to determine the % of compound remaining relative to the initial concentration of compound.

[3] = Plasma stability, mini pig; type: in vitro ADME; details: 1 μM, 37 °C
Description: as §1

[4] = Plasma-protein binding by RED, rat; type: in vitro ADME; details: pH 7.2, read-out: Plasma-protein binding by RED (% unbound compound, average n=2)
Description: The assay was run in a deep well plate containing RED inserts with semipermeable dialysis membranes. The reaction was started by adding the compounds to a blank plasma in a 5 μM concentration. Opposite to the blank plasma was a compartment containing isotonic sodium–phosphate buffer (pH 7.2) separated from the plasma by the membrane. The plate was equilibrated in a water bath at 37 °C for 4 h. Samples from both the plasma and the buffer side were matrix compensated before protein precipitation. The samples were centrifuged, and the supernatants were diluted and analyzed by LC–MS/MS to determine the % unbound compound. Two incubations per compound per species.

[5] = Neu5Ac transport by PmSiaT in proteoliposomes

T1 sequence (B4EZY7 whole entry): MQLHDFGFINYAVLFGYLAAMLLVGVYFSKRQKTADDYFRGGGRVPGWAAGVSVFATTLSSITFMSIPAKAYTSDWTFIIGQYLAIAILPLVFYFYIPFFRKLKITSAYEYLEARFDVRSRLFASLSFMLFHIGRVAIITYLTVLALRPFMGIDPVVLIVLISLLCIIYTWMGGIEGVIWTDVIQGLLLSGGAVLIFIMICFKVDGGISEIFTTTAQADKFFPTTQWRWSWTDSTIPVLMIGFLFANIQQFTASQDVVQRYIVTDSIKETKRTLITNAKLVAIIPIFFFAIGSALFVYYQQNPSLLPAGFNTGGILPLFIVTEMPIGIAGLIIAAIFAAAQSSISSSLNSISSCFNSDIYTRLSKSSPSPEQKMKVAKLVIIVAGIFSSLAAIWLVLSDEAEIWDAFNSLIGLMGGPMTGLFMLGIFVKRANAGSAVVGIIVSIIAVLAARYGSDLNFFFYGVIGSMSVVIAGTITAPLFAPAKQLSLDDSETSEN

Compound	type of inhibition [1]	Ki [1]	In vitro plasma stability (% compound remaining after 23 h) [2]	In vitro plasma stability (% compound remaining after 23 h) [3]	fraction unbound at 4 h, 5 μM [4]	Km [1, 5]	Vmax [1, 5]
CC(=O)NC1C(OCc2cc(Br)cc(Br)c2)CC(O)(C(=O)O)OC1C(O)C(O)CO (stereo not drawn) [Compound 3f]	competitive inhibitors	0.13 ± 0.04 µM	91%	39%	0.21	–	–
CC(=O)NC1C(OCc2ccccc2)CC(O)(C(=O)O)OC1C(O)C(O)CO (stereo not drawn) [Compound 3a]	–	–	100%	100%	0.72	–	–
CC(=O)N[C@H]1[C@H]([C@H](O)[C@H](O)CO)OC(O)(C(=O)O)C[C@@H]1O (stereo partly drawn) [Neu5Ac, 5-N-acetyl neuraminic acid, reference compound]	–	–	–	–	–	7.5 ± 1.6 µM	180 ± 56 nmol/mg protein/min
CC(=O)NC1C(OCc2cc(F)cc(F)c2)CC(O)(C(=O)O)OC1C(O)C(O)CO (stereo not drawn) [Compound 3e]	competitive inhibitors	9.9 ± 2.6 µM	100%	100%	0.67	–	–
